The values that follow come from patent US7989188B2, “Conjugates for cancer therapy and diagnosis” (BioSight Ltd., priority 2004, dated 2011).

One data set deals with BALB/c female mice. Description: Acute intravenous (IV) toxicity, single injection, MTD and LD50. How it is done:
(§1) Purpose: To measure the potential acute intravenous (IV) toxicity of Asp(5-FU) in mice, estimated by Maximum Tolerated Dose (MTD) and 50% Lethal Dose (LD50).
(§2) Method: The potential acute intravenous (IV) toxicity of the Asp(5-FU) was assessed in groups of BALB/c female mice of 5 mice per group, in order to establish appropriate MTD levels towards a projected series of various anti-tumorigenic efficacy trials.
(§3) Asp(5-FU) was administered as single IV injections at three dose levels of 80, 150 and 200 mg/kg. One group was administered with saline served as control. In all instances, freshly prepared solutions were injected at a constant volume of 10 ml/kg.

Assay in data set [1]: as above
The note with it: female, BALB/c, mouse, in vivo, iv. How it is done: as §1, §2, §3

Data set [2] can be described thus: Acute toxicity (MTD), single administration by oral gavage. The note with it: mouse, in vivo, po. How it is done:
(§4) OBJECTIVE: To determine the Maximum Tolerated Dose (MTD) of the test product, Asp(5-FU), following a single administration by oral gavage (PO) to mice.
(§5) This experiment was performed essentially according to Example 22 supra, with the exception that the test agent and the controls were administered orally, by oral gavage. Asp(5-FU) was suspended in corn oil and administered by single oral gavage (PO), at 2 dose levels of 200 and 400 mg/kg, to 2 test groups. An additional equally sized group was administered the vehicle (corn oil) and served as control. In all instances the volume dosage was 10 ml/kg.

The subject of data set [3] is mice. The description is as above. The settings on record: single PO 200 and 400 mg/kg. How it is done:
as §4, §5

Data set [4] concerns MX-1 human mammary duct carcinoma. Put plainly: Anti-tumor activity, MX-1 xenograft murine model, intravenous treatment. In kind it is in vivo, BALB/c nude mice. The settings on record: for increase in tumor volume at the end of the study period: injected Days 10, 14 and 18, Asp(5-FU) 50 and 100 mg/kg, 5-FU 26 mg/kg, saline 170%. The protocol:
The potential anti-tumor activity of Asp(5-FU) was assessed based on the relative growth inhibition of human mammary duct carcinoma, MX-1 murine model.
Propagation of Tumor Material (MX-1 fragments): The Mammary Xenograft-1 (MX-1) is a human derived mammary duct carcinoma, supplied by the National Cancer Institute (NCI). The tissue was kept frozen until the time of implantation. The fragments (one to each animal in the study) were prepared according to the NCI recommended transplantation protocol.
Each vial containing 5 to 6 fragments was rapidly thawed (60-90 seconds) in a water bath at 37-40° C. The frozen fragments were implanted immediately after thawing.
Two fragments were implanted close to each other at the same sub-axillary incision site of each animal assigned to the propagation phase. The mass doubling time of the MX-1 tumor during the logarithmic phase was 4-5 days post implantation. Subsequently, another 2 fragments were implanted into each of 6 animals to achieve at least a total of 20 implanted fragments.
At the end of the logarithmic phase, the donor animals were sacrificed, the tumors were excised, dissected and transferred to a sterile Petri dish placed over ice and cut into approximately 20 fragments (about 2×2×2 mm each) for their transplantation into 10 naïve mice. A total of 42 tumor fragments were transplanted at the end of the second propagation phase. No more than 30 minutes elapsed from the time the tumor was removed from the donor animals until transplantation.
Tumor Induction and Monitoring (Pre-Treatment): Upon completion of the propagation phase, tumor fragments measuring about 2×2×2 mm each, were implanted subcutaneously (SC) into the right flank of each test animal assigned to the main study. Tumor growth was monitored twice weekly and the total SC mass (mm^3) determined on the basis of width and length measurement using micrometer calipers. […]
Tumor volume changes were determined using the following equation: V (mm^3)=d^2 (mm^2)×D (mm)/2 wherein d and D represent the smallest and the largest perpendicular tumor diameters respectively. […]
Body Weight: Individual body weights were determined prior to MX-1 fragment transplantation and thereafter once weekly until initiation of treatment. Following initiation of treatment individual body weights were determined twice weekly until the scheduled study termination or in case of removal of animals from the study due to animal welfare reasons, at the time of death.
Necropsy Procedures and Macroscopic Examination: Necropsy was performed on all animals including those removed from the study for animal welfare reasons and all surviving 10 days after the last dosing session (Groups 1, 2 & 3), following euthanasia. […] All gross pathological changes were recorded. […]

The subject of data set [5] is human mammary duct carcinoma xenograft MX-1. Description: Anti-tumor activity, MX-1 xenograft murine model, oral gavage. The data set is classed as in vivo, mice. The settings on record: PO gavage 200 mg/kg, seven administrations at 3-days inter-dosing intervals. The protocol:
The compounds were administered to mice following about 3-6 hours food deprivation prior to dosing, using a suitable stainless steel feeding needle. Following dosing, food was withheld for further 1-2 hours.
Dose and Volume Dosage: 50 mg/kg reference item and 200 mg/kg of Asp(5-FU). In all instances, volume dosage was 10 ml/kg.
Frequency and Duration: Treatment with Control, Test or Reference Items was carried out as 1× daily injection at 3-days inter-dosing intervals×7 (days 1-25).

Data set [6] relates to Human umbilical vein endothelial cells (HUVEC, normal). Put plainly: In-vitro toxicity profile, MTT cell viability. The note with it: normal cells (HUVEC), 72 hours, at the concentration of 5-FU that causes 50% mortality (IC50), FIG. 1. In kind it is cell-based. How it is done:
(§6) Materials and Methods: Human umbilical vein endothelial cells (HUVEC, normal) cells were grown in M199 medium supplemented with 20% fetal calf serum (FCS), vitamins, 1 ng/ml hbFGF, and antibiotics at […], 5% CO2. Human melanoma cells (WW-94, cancer) cells were grown in 50% DMEM/50% F-12 medium supplemented with 10% fetal calf serum and antibiotics.
(§7) The cells were seeded in a 96-well ELISA dish at a concentration of 10,000-20,000 cells/well. The conjugates were added at concentrations that cause IC50 (50% lethality, FIG. 1), or IC90 (90% lethality, FIG. 2) by 5-FU. The cells were incubated for 72 hours at 37° C. and 5% CO2. After 72 hours the medium was aspirated, and DMEM containing 5% FCS and 0.5 mg/ml MTT (3-(4,5-Dimethyl-2-thiazolyl)-2,5-diphenyl-2H-tetrazolium bromide, an indicator of cell viability) was added. The cells were incubated for 2-4 hours at 37° C. and 5% CO2, washed with phosphate buffer saline (PBS) and dissolved in dimethylsulfoxide (DMSO). The results were analyzed using Techan ELISA reader equipped with a 570 nm filter. The results are represented as % of cell mortality.

Data set [7] can be described thus: In-vitro toxicity profile, MTT cell viability. In kind it is cell-based. The settings on record: human, HUVEC (human umbilical vein endothelial cells, normal), healthy cells (HUVEC), at the concentration of 5-FU that resulted in 90% mortality (IC90), FIG. 2. The protocol: as §6, §7
For data set [8], the system named is mice. The settings on record: NIH report; cited from earlier work.

The LD50 is the dose expected to kill half of the subjects tested. Usually mortality stands for the share of the test organisms that died. Read a high mortality as a strong lethal effect. Regarding `NC(CC(=O)n1cc(F)c(=O)[nH]c1=O)C(=O)O` [Asp(5-FU), L-aspartic acid-beta-1N-(2,4-dioxo-5-fluoropyrimidine)], the “less toxic than 5-FU” value in the data set on BALB/c female mice (female, BALB/c, mouse, in vivo) was determined as 600%. In addition, the “gross pathological findings at scheduled necropsy” value in the data set with BALB/c female mice (single IV 80, 150 and 200 mg/kg) is “No gross pathological findings”; in the data set with mice [3], “No gross pathological findings”. Moreover, the Incidence of mortality with BALB/c female mice (single IV injection, high-dose group 200 mg/kg, immediate post-dosing period) is 3/5. Moreover, the clinical signs result was “brief decreased motor activity or lateral recumbency” in the data set with BALB/c female mice (single IV, high-dose 200 mg/kg, survivors or decedents respectively); “No obvious clinical signs” with BALB/c female mice (single IV, intermediate- and low-dose 150 & 80 mg/kg). For the same compound, the “Mean group body weight” value in the data set on BALB/c female mice (single IV, intermediate-dose group, Day 8, p<0.01, full recovery Day 8-15) is reported as “transient reduced body weight”. This compound registered an LD50 in data set [1] of 200 mg/kg. For the same compound, in data set [1], the MTD is 160 mg/kg. Moreover, the MTD at 14 days in data set [2] was over 400 mg/kg. Moreover, in the data set with mice [3] (14-day observation period), the “clinical signs in reaction to dosing” value was “No noticeable clinical signs”. For the same compound, the “tumor progression compared to controls” value in [4] (Asp(5-FU) 50 and 100 mg/kg, tumor volume, FIG. 5) is on record as “significant reduction in tumor progression”. Also, the “tumor weight upon necropsy compared to 5-FU and saline control” value in data set [4] (end of treatment period, FIG. 6) is on record as “significant decrease”. For the same compound, the “increase in tumor volume at the end of the study period” value in [4] was 104%. Also, in data set [5], the “progressive tumor development compared to corn oil controls” value is “relative decrease in progressive tumor development”. Further, the “% of cell mortality” value in data set [6] is listed as “did not kill normal cells”. In [7], this compound displayed a mortality at 72 h of 20%.

`O=c1[nH]cc(F)c(=O)[nH]1` [Compound 5-FU, 2,4-dioxo-5-fluoropyrimidine]: in the data set on mice [8], the LD50 was 81 mg/kg and the MTD was 24 to 26 mg/kg. In addition, the “increase in tumor volume at the end of the study period” value in [4] is given as 185%.
